The subject of one series is HepG2.2.15 cells. Description: Cytotoxicity assay (CCK-8 cell viability). As to conditions: 3.12-100 µM; for HepG2.2.15 cytotoxicity: day 2 and 4 post-first exposure; for cell viabilities: day 6 post-first exposure, unrelated to ginsenoside doses, non-specific decline. The class given is cell-based, human. How it is done:
HepG2.2.15 cells (seeded at a density of 4 x 10^4 cells per well in 96-well plates) were cultured at 37 °C in humidified air with 5 % CO2. After cells reached 70-80 % confluence, initial screening of ginsenoside library compounds was performed with each compound added to cultured HepG2.2.15 cell at a final concentration of 50 µM. Cells were then further incubated at 37 °C under 5 % CO2. At day 4 post-first exposure of cells to each ginsenoside library compound, percentage cell viabilities were determined by CCK-8 (Dojindo Laboratories, Kumamoto, Japan) used according to manufacturer's instructions. Thereafter, cytotoxicity studies were performed with appropriate quantities of selected ginsenosides (Rg6, Rh4, or Rb3) added to cultured HepG2.2.15 cells at final concentrations of 100, 50, 25, 12.5, 6.25 or 3.12 µM. Cells were then incubated at 37 °C under 5 % CO2. At day 2, 4, and 6 post-first exposure of cells to the selected ginsenosides, percentage cell viabilities were determined by CCK-8 assay as above. Final cytotoxicity studies were performed with combinations of ginsenoside compounds (Rg6, Rh4 or Rb3) (at 80, 40, 20, 10, 5 or 2.5 µM) and LMV (at 0.08, 0.04, 0.02, 0.01, 0.005 or 0.0025 µM) respectively added to cultured HepG2.2.15 cells. Once more, cells were further incubated at 37 °C under 5 % CO2. At day 5 post-first exposure of cells to ginsenoside/LMV combinations, percentage cell viabilities were determined by CCK-8 assay once again.

Series [1] deals with HBs protein (S-HBs, M-HBs, and L-HBs) mRNA. The experiment in a line: Knockdown of HBs protein mRNA expression levels in HepG2.2.15 cells (RT-qPCR relative to GAPDH mRNA). The class given is cell-based, hepatitis B virus. As to conditions: for IC50: Hepatitis B virus, read-out: Estimated IC50 values (knockdown of HBs protein mRNA expression levels); for knockdown effects on HBs protein mRNA expression levels: day 6 post-first exposure (data not shown); for knockdown HBs protein mRNA expression levels (in words): library screen, 50 µM, day 4 post-first exposure, HepG2.2.15 cells. How it is done:
HepG2.2.15 cells (seeded at a density of 4 x 10^4 cells per well in 96-well plates) were cultured at 37 °C in humidified air with 5 % CO2. Once cells had reached confluence, initial screening of ginsenoside library compounds was performed with each compound added individually to culture media at a final concentration of 50 µM. Cells were then further incubated at 37 °C under 5 % CO2. At day 4 post-first exposure, cells were then collected to determine the percentage knockdowns of HBs protein mRNA expression levels relative to GAPDH mRNA levels (as described below).
Thereafter, more extensive studies were performed with HepG2.2.15 cells as follows. After cells were grown to confluence, as above, culture media were replaced with media containing one of the selected ginsenosides as appropriate, or else with LMV or ginsenoside/LMV combinations at the indicated concentrations. Cells were then further incubated at 37 °C under 5 % CO2. At the indicated times (at day 2, 4, or 6 post-first exposure; or at just day 5 post-first exposure), cell and culture media samples respectively were collected for subsequent detection of HBs protein mRNA expression levels or secreted HBV DNA and HBsAg levels (as described below).
RNA extraction from cells was performed using the QIAamp® Viral RNA Mini kit (Qiagen, Germany), according to manufacturer's instructions. RNA integrity was evaluated by electrophoresis on 1% agarose gels, and quantified using a ND1000 spectrophotometer (NanoDrop Technologies, Germany). Following this, extracted RNA (1 µg) was used to synthesize cDNA using a SensiFAST™ cDNA Synthesis Kit (Meridian Bioscience Inc, Cincinnati, OH, USA) according to manufacturer's instructions. RT-qPCR reactions were then performed with qPCR 2xSYBR master mix (Top-Bio, Czech Republic) on a LightCycler® real-time PCR system (Roche, Switzerland), using the indicated primers specific for amplification of HBs protein (S-HBs, M-HBs, and L-HBs) and GAPDH control mRNAs (Table 1). PCR amplification was performed on multiple RT-qPCR reaction mixtures (each 20 µl) located in individual wells of a 96-well optical-grade PCR plate, sealed with optical sealing tape (Bio-Rad Laboratories, Hercules, CA, USA). Each RT-qPCR reaction mixture comprised synthesized cDNA (2 µl) (diluted 1:1), appropriate primers (each 0.4 µl, […]), 2xSYBR green PCR master mix (10 µl) and ddH2O (7.2 µl). PCR amplification involved one cycle at 94 °C (5 min), followed by 40 cycles of denaturation at 94 °C (20 s), then annealing and extension at 57 °C for 20 s, plus 72 °C for 30 s. Finally, melting curve analyses were performed by slowly heating the PCR reaction mixtures from 65 to 95 °C, in increments of 0.5 °C every 5 s, with simultaneous measurements of the SYBR green signal intensities. Percentage knockdowns of HBs protein mRNA expression levels were determined relative to GAPDH mRNA levels using calculated 2^-ΔΔct values [Livak, K.J; Schmittgen, T.D. Analysis of relative gene expression data using real-time quantitative PCR and the 2(-Delta Delta C(T)) Method. Methods 2001, 25, 402-8]. Three biological replicates were performed for each data point where fold change (FC) ≥ 2 is considered statistically significant. Table 1. Primers for RT-qPCR detection of specific mRNAs

Where two headings read alike, the source gives them in different places.

On to `CC(C)=CCC[C@](C)(O[C@@H]1O[C@H](CO[C@@H]2OC[C@@H](O)[C@H](O)[C@H]2O)[C@@H](O)[C@H](O)[C@H]1O)[C@H]1CC[C@]2(C)[C@@H]1[C@H](O)C[C@@H]1[C@@]3(C)CC[C@H](O[C@@H]4O[C@H](CO)[C@@H](O)[C@H](O)[C@H]4O[C@@H]4O[C@H](CO)[C@@H](O)[C@H](O)[C@H]4O)C(C)(C)[C@@H]3CC[C@]12C` [Rb3], for which, in the series with HepG2.2.15 cells, the HepG2.2.15 cytotoxicity result is on record as “no significant HepG2.2.15 cytotoxicity” and the cell viabilities entry is “Slightly reduced cell viabilities”. In addition, the IC50 (in general, the concentration that gives 50% inhibition) in series [1] (HepG2.2.15, 48 h) was 4.1 µM. Moreover, the IC50 in series [1] (HepG2.2.15, 96 h) is 3.2 µM. In addition, in series [1], the “knockdown effects on HBs protein mRNA expression levels” value is listed as “wear off completely” and the “knockdown HBs protein mRNA expression levels (in words)” value was “especially effective”.
Take `C=C(CCC=C(C)C)[C@H]1CC[C@]2(C)[C@@H]1[C@H](O)C[C@@H]1[C@@]3(C)CC[C@H](O)C(C)(C)[C@@H]3[C@@H](O[C@@H]3O[C@H](CO)[C@@H](O)[C@H](O)[C@H]3O[C@@H]3O[C@@H](C)[C@H](O)[C@@H](O)[C@H]3O)C[C@]12C` [Rg6]: in the series on HepG2.2.15 cells, the HepG2.2.15 cytotoxicity entry is given as “no significant HepG2.2.15 cytotoxicity” and the cell viabilities entry is given as “Slightly reduced cell viabilities”. Also, the concentration for half-maximal inhibition (IC50) in series [1] (HepG2.2.15, 48 h) is 5.1 µM. Besides, the IC50 in series [1] (HepG2.2.15, 96 h) was 3.2 µM. In series [1], the “knockdown effects on HBs protein mRNA expression levels” value is reported as “wear off completely” and the “knockdown HBs protein mRNA expression levels (in words)” value is “especially effective”.

These data come from EP4444311B1, “GI[…] TREATMENT OF CHRONIC HEPATITIS B VIRUS INFECTIONS” (priority 2021, dated 2023).
